The experiment addresses mGluR2 (Rattus norvegicus, UniProt P31421). Briefly: mGluR2 PAM (positive allosteric modulator) EC50. Format: cell-based. To be noted: positive allosteric modulator activity.

One molecule from patent US8748632B2, “Positive allosteric modulators of group II mGluRs” (Sanford-Burnham Medical Research Institute, priority 2010, dated 2014) can be followed below.

mGluR2, sequence (P31421 19-872): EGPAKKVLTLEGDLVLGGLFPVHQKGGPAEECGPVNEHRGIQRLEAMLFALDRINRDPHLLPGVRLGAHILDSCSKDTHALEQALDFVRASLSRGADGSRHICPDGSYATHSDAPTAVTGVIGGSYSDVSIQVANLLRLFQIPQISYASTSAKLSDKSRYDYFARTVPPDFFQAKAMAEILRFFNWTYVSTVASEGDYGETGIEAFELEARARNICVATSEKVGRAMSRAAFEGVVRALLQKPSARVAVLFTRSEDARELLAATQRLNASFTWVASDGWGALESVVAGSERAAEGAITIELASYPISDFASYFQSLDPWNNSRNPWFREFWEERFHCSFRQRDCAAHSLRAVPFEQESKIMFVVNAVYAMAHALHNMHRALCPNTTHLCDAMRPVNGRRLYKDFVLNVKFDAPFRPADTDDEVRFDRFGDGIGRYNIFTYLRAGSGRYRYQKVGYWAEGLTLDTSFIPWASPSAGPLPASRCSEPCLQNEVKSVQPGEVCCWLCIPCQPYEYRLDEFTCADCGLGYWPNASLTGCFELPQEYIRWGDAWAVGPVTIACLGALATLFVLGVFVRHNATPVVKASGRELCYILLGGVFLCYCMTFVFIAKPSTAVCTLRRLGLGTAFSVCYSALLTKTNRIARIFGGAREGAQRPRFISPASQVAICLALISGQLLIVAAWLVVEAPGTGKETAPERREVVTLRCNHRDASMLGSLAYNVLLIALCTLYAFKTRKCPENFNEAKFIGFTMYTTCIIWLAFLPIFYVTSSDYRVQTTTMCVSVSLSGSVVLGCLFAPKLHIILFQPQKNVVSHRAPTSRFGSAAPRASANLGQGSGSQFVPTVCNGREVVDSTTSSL

`O=C(O)c1cc(-c2cccc(COc3ccc4c(=O)n(C5CCCCC5)oc4c3)c2)ccc1Cl` [Example 61, 4-Chloro-3′-((2-cyclohexyl-3-oxo-2,3-dihydrobenzo[d]isoxazol-6-yloxy)methyl)biphenyl-3-carboxylic acid]: the “mGluR2 PAM EC50(μM)” value was “desensitizes”.
